Experimental data from PubChem BioAssay (NCI).
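Test compounds were applied to cells in 96-well plates for 48 hours at 5 doses. TGI is the concentration that stops growth completely.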

Legend:
Experiment in all cases: NCI-60 cell line screen, 48 h
ACHN renal = tested on: ACHN renal
BT-549 breast = tested on: BT-549 breast
COLO 205 colon = tested on: COLO 205 colon
IGROV1 ovarian = tested on: IGROV1 ovarian
K-562 leukemia = tested on: K-562 leukemia
M14 melanoma = tested on: M14 melanoma
MALME-3M melanoma = tested on: MALME-3M melanoma
MDA-MB-435 = tested on: MDA-MB-435
MOLT-4 leukemia = tested on: MOLT-4 leukemia
NCI-H226 lung = tested on: NCI-H226 lung
NCI-H460 lung = tested on: NCI-H460 lung
OVCAR-5 ovarian = tested on: OVCAR-5 ovarian
RPMI-8226 leukemia = tested on: RPMI-8226 leukemia
SK-MEL-28 melanoma = tested on: SK-MEL-28 melanoma
SNB-19 CNS = tested on: SNB-19 CNS
SNB-75 CNS = tested on: SNB-75 CNS
U251 CNS = tested on: U251 CNS
UACC-62 melanoma = tested on: UACC-62 melanoma
CAKI-1 renal = tested on: CAKI-1 renal
SN12C renal = tested on: SN12C renal

SMILES	TGI (ACHN renal)	TGI (BT-549 breast)	TGI (COLO 205 colon)	TGI (IGROV1 ovarian)	TGI (K-562 leukemia)	TGI (M14 melanoma)	TGI (MALME-3M melanoma)	TGI (MDA-MB-435)	TGI (MOLT-4 leukemia)	TGI (NCI-H226 lung)	TGI (NCI-H460 lung)	TGI (OVCAR-5 ovarian)	TGI (RPMI-8226 leukemia)	TGI (SK-MEL-28 melanoma)	TGI (SNB-19 CNS)	TGI (SNB-75 CNS)	TGI (U251 CNS)	TGI (UACC-62 melanoma)	TGI (CAKI-1 renal)	TGI (SN12C renal)
Nn1c(-c2ccccc2Nc2ccccc2-c2n[nH]c(=S)n2N)n[nH]c1=S	> 50 µM	> 50 µM	> 50 µM	> 50 µM	> 50 µM	> 50 µM	> 50 µM	> 50 µM	> 50 µM	> 50 µM	> 50 µM	> 50 µM	> 50 µM	> 50 µM	> 50 µM	> 50 µM	> 50 µM	> 50 µM		
CCOC(=O)c1c(N2CCOCC2)[nH]c(=O)c(C(c2c(O)c(C(=O)OCC)c(N3CCOCC3)[nH]c2=O)C(C)C)c1O	> 100 µM	> 100 µM	> 100 µM		> 100 µM	> 100 µM	> 100 µM	> 100 µM	> 100 µM	> 100 µM	> 100 µM	> 100 µM	> 100 µM	> 100 µM	> 100 µM	69.7 µM	> 100 µM	> 100 µM	> 100 µM	> 100 µM
O=c1oc2ccccc2c(-c2ccc(O)cc2)c1Oc1ccc(Cl)cc1	97.2 µM	84.3 µM	56.2 µM	60.8 µM	72.1 µM	39 µM	55 µM	> 100 µM		86.3 µM	54.4 µM	> 100 µM	52.4 µM	> 100 µM	67 µM	85.7 µM	61.4 µM	63.3 µM	> 100 µM	79.7 µM
CCOP(=O)(OCC)/C(=C/c1ccccc1)CC(C)=O	> 100 µM	> 100 µM	> 100 µM	> 100 µM	> 100 µM	> 100 µM	> 100 µM	> 100 µM	> 100 µM	> 100 µM	> 100 µM	> 100 µM		> 100 µM	> 100 µM	> 100 µM	> 100 µM	> 100 µM	> 100 µM	> 100 µM
NNC(=O)CC(=O)Nc1ccc(C(=O)O)cc1	> 100 µM	> 100 µM	> 100 µM	> 100 µM	> 100 µM		> 100 µM	> 100 µM	> 100 µM	> 100 µM	> 100 µM	> 100 µM	> 100 µM		> 100 µM	> 100 µM	> 100 µM	> 100 µM	> 100 µM	> 100 µM
O=[N+]([O-])c1nccn1CCCN=c1c2ccccc2n(O)c2ccccc12	> 100 µM	> 100 µM	55.6 µM	> 100 µM	> 100 µM	> 100 µM	> 100 µM	> 100 µM	> 100 µM	> 100 µM	> 100 µM	> 100 µM	> 100 µM	> 100 µM		> 100 µM	> 100 µM	> 100 µM	> 100 µM	> 100 µM
CC(C)N(CCCNc1c2ccccc2nc2cccc([N+](=O)[O-])c12)C(C)C	< 0.0301 µM	< 0.0442 µM	< 0.015 µM		62.3 µM	< 0.01 µM		< 0.018 µM		0.325 µM	< 0.0445 µM		< 0.0192 µM	< 0.01 µM	0.121 µM	0.149 µM	< 0.0365 µM		0.593 µM	
NS(=O)(=O)c1cc(S(N)(=O)=O)c(NC(=O)Nc2ccc(Cl)c(Cl)c2)c(Cl)c1Cl	> 100 µM	> 100 µM	> 100 µM	> 100 µM	> 100 µM	> 100 µM		> 100 µM	> 100 µM	> 100 µM	> 100 µM	> 100 µM	> 100 µM	> 100 µM	> 100 µM		> 100 µM	> 100 µM	> 100 µM	> 100 µM
CSc1c(C#N)c(O)n(-c2ccc(Cl)cc2)c(=O)c1C#N		> 100 µM	> 100 µM	> 100 µM	> 100 µM	> 100 µM	> 100 µM	> 100 µM	> 100 µM	> 100 µM	> 100 µM	> 100 µM	> 100 µM	> 100 µM	> 100 µM	> 100 µM	> 100 µM	> 100 µM	> 100 µM	> 100 µM
COc1ccc2cc(-c3ccc(OC)c(OC)c3)c(=O)oc2c1	> 100 µM	> 100 µM	> 100 µM	> 100 µM	> 100 µM	> 100 µM	> 100 µM	> 100 µM	> 100 µM	> 100 µM	> 100 µM	> 100 µM	> 100 µM	> 100 µM	> 100 µM		> 100 µM	> 100 µM	> 100 µM	> 100 µM
CNC(=S)NNC1=NCCCN1	> 100 µM	> 100 µM	> 100 µM	> 100 µM	> 100 µM	> 100 µM	> 100 µM	> 100 µM	> 100 µM	> 100 µM	> 100 µM	> 100 µM	> 100 µM	> 100 µM	> 100 µM	> 100 µM	> 100 µM	> 100 µM	> 100 µM	
NC(=S)SC1=NNC2(C(=O)N1)c1ccccc1-c1ccccc12	> 10 µM	> 10 µM	> 10 µM	> 10 µM		> 10 µM	> 10 µM	> 10 µM		> 10 µM	> 10 µM		> 10 µM	> 10 µM	> 10 µM	> 10 µM		> 10 µM	> 10 µM	> 10 µM
CCOC(=O)CCC(NC(=O)N1CCN(c2c(C)nc(C)[nH]c2=O)CC1)C(=O)OCC (stereo unspecified)	> 100 µM	> 100 µM	> 100 µM	> 100 µM	> 100 µM	> 100 µM	> 100 µM	> 100 µM	> 100 µM	> 100 µM	> 100 µM	> 100 µM	> 100 µM	> 100 µM	> 100 µM		> 100 µM	> 100 µM	> 100 µM	> 100 µM
